Measurements published in patent US12691100B2, “NMT inhibitor treatment of a senescence-associated disease or disorder of the liver” (Imperial College Innovations Limited, priority 2020, dated 2026).

How the values were obtained:
[1] = Blood markers (Vetscan) in a separate cohort of old mice; assay type: in vivo, female C57/BL6 mice; conditions: ~19 mo females, before 4th round, Compound 2 10 mg/kg, Compound 3 25 mg/kg, versus vehicle
Experimental: Blood was collected prior to each round of injection for physiological assessments. Mice were allowed to rest 4 weeks prior to being culled and organs collected for freezing in OCT, paraffin embedding and snap-freezing for RNA extraction.
For analysis of immune cell composition in whole blood, tail-vein blood was collected 2 days after last treatment. Whole blood was diluted in saline to a volume of […] and ran on a Sysmex XE2100 automated cell counter. Blood glucose levels were determined by collecting whole-blood from tail vein into heparinised tubes (Abraxis), 120-140 μL of whole-blood to be loaded onto a comprehensive diagnostic profile reagent rotor (Abraxis) and run on a VetScan VS2 Chemistry Analyzer (Abraxis: 500-7123).
Further experiments were performed on a separate cohort of old mice. […] This regimen was repeated 4 more times and blood was collected for Vetscan measurements prior to the 4th round of treatment (FIG. 19). At that stage, ~19 mo females presented elevated levels of ALT, amylase and glucose in blood when compared with young mice (FIG. 20A).

[2] = test system: senescent preneoplastic hepatocytes; test: Model of liver cancer initiation (Nras G12V by hydrodynamic tail vein injection); assay type: in vivo, C57BL/6J mice; conditions: 25 mg/kg i.p. daily for 4 days from day 5 after HDTVI; FIGS. 16C-E
Experimental: All mice were purchased from Charles River UK, Ltd. For Hydrodynamic tail vein injection (HDTVI) experiments female C57BL/6J mice aged 5-6 weeks were given 20 μg of Nras^G12V & gaussia luciferase (Gluc) expressing plasmid and 5 μg of SB13 transposase-expressing plasmid. Plasmids were prepared using GeneElute HP Endotoxin-free Plasmid Maxiprep kit (Sigma). Purified plasmids were diluted in sterile-filtered PBS to a total volume of 10% mouse body weight and injected into mouse lateral tail vein within a 10 s window. 4 days after HDTVI, mice were bled to assess presence of gaussia luciferase signal in the blood serum and used to randomize/equalize groupings for vehicle and drug treated groups. […]
Immunohistochemical staining—Slides were deparaffinised by washing slides twice in Histoclear™ for 5 min each, followed by 5 min washes in decreasing concentrations of ethanol with 100%, 75%, 50% & 25% ethanol washes before a final wash 5 min in dH2O. […] Signal development was stopped when visible positive cells could be detected on a microscope, by washing slides in dH2O. […]
Slide image acquisition & analysis—Slides were acquired using a 20× brightfield objective on a Zeiss Axio Scan Z.1 slide scanner and analysis performed using QuPath version 0.2.0-m9 using in built positive cell detection tool to segment Haematoxylin stained nuclei and quantify mean intensity of DAB. […]

[3] = test system: HCT116 colon cancer cells; test: Senolytic survival assay, chemotherapy-induced senescence in cancer cells; assay type: cell-based, human; conditions: second experiment: doxorubicin 100 nM, etoposide 2 μM or cisplatin 100 μM, or DMSO; replenished after 72 h, 48 h more; FIGS. 7A-C
Experimental: IMR90 cells were used to generate inducible ER:RAS (hereinafter iRAS) cells to model Oncogene induced senescence (OIS), through retroviral infection of pLNC-ER:RAS-neo into IMR90 cells followed by selection with Neomycin. IMR90 cells containing the pLNC-ER:RAS plasmid backbone pLXSN were infected in parallel to assess leakiness in the pLNC-ER:RAS system. Treatment with 100 nM 4OHT (Sigma, in DMSO) was used to induce IMR90 ER:RAS cells to undergo oncogene induced senescence (OIS). Therapy induced senescence (TIS) was induced in IMR90 cells by treatment with 33 μM (50 ug/ml) bleomycin sulphate (Generon, HY-17565) for 24 hours, 20 μM palbociclib (Selleckchem, S1116) for 7 days or 100 nM doxorubicin (Cayman chemical, 15007) for 7 days. Senescence was induced in SK-HEP-1 cells by treatment with 2 μM etoposide (Sigma-Aldrich, E1383) for 7 days (FIGS. 4A-C). HCT-116 senescence was induced by 250 nM treatment with doxorubicin (Cayman chemical, 15007) for 48 hours followed by 5 days culture in media without chemotherapy (FIG. 5), or by treatment with 100 nM doxorubicin, 2 μM etoposide or 100 μM cisplatin for 3 days followed by 4 days culture in media without chemotherapy (FIGS. 6A-7C). Senescence was induced in MCF7 by 200 nM treatment with doxorubicin for 7 days, 2 μM etoposide for 7 days or 10 μM cisplatin for 7 days (FIGS. 8A-9C).
High-throughput microscopy survival assay—To assess senolytic effect of drugs, cells were cultured for 7 days, culture media was changed to DM0.5 media and drugs in DMSO were added (<5% v/v final concentration), drugs were replenished after 3 days if assay length was longer than 72 h. Wells were fixed in 4% PFA for 1 hour at day 10 to 14, washed 3 times with PBS and then stained with 1 μg/mL DAPI (w/v, PBS) for 10 minutes. Wells were then washed 3 times with PBS. Optionally plates could be stored at 4° C. for up to 2 weeks and DAPI stained. Image acquisition of DAPI stained cells was performed on an automated InCell Analyser 2000 (GE Healthcare®) and high-content analysis on the InCell Investigator 2.7.3 software used to quantify number of DAPI positive cells per well. […] Survival was measured as cell counts relative to DMSO treated quiescent or senescent cells.
In a first experiment, HCT116 colon cancer cells were treated with doxorubicin (to induce senescence), or DMSO (as a control). […] 7 days after adding the drugs with replenishment after 3 days, cells were fixed, imaged and cells numbers were quantified using high throughput microscopy. […]
In a second experiment, HCT116 were treated with doxorubicin, etoposide or cisplatin (to induce senescence) or DMSO (as a control). 7 days after treatment, BrdU incorporation (to assess cell division), SA-β-Galactosidase activity and p21^CIP1 expression (as markers of senescence) were analysed. […]

For Cc1c(CCOc2cc(Cl)ccc2-c2ccc3ncc(CCN)n3c2)c(C(=O)N(C)C)nn1C [Compound 3, 4-(2-{2-[3-(2-aminoethyl)imidazo[1,2-a]pyridin-6-yl]-5-chlorophenoxy}ethyl)-N,N,1,5-tetramethyl-1H-pyrazole-3-carboxamide], which ALT in blood ([1]; FIG. 20A) is on record?
Its ALT in blood is “lower level”.

What about the Amylase in blood ([1]; FIG. 20B) of the same compound?
The Amylase in blood was “lower level”.

What about the Glucose in blood ([1]; FIG. 20C) of the same compound?
The Glucose in blood was “lower level”.

What about the “Number of senescent preneoplastic hepatocytes” value [2] of the same compound?
The value was “reduces the number senescent preneoplastic hepatocytes”.

And the “Survival, senescent versus control cells” value [3]?
The value was “preferentially kill cancer cells that undergo senescence after being treated with doxorubicin, etoposide or cisplatin”.
